{"source": "patent US5641772A", "about": "“Condensed diazepinones, processes for preparing them and agents containing these compounds for treating diseases of the central nervous system and for promoting cerebral blood circulation” (Dr. Karl Thomae GmbH, priority 1991, dated 1997)", "key": {"[1]": {"target": "T1, M2 (Heart) muscarinic receptors (Rattus norvegicus, UniProt P10980)", "T1 construct": "The cerebral cortex, heart and salivary glands were removed, washed and homogenised; from tissue; host or cells: rat heart homogenate (Wistar, Chbb: THOM)", "T1 sequence (P10980 1-466)": "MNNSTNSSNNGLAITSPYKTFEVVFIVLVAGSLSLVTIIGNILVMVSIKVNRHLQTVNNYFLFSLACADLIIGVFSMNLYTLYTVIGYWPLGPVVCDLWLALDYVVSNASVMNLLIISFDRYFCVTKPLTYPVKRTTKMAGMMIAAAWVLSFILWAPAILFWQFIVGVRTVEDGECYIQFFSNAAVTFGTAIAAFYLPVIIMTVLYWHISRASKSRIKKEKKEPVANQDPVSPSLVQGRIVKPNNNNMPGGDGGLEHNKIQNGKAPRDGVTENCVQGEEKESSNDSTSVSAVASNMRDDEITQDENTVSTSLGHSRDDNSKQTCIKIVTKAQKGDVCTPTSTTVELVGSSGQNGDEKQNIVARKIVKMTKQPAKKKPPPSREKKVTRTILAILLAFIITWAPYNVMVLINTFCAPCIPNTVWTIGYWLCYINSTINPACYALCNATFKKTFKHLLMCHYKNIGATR", "test": "Receptor binding test, [3H]NMS, heart (M2)", "set-up": "species or system Male Wistar rats", "conditions": "for Selectivity ratio (M1 /M2): ratio of Ki M1 (cortex) to Ki M2 (heart); for Ki: in vitro, rat heart, 0.3 nM [3H]NMS, 40 minutes"}, "[2]": {"tested_on": "learning ability and memory performance", "conditions": "Hunter et al., Sutherland et al., Wishaw; cited from earlier work"}, "[3]": {"tested_on": "arecoline-induced increase in blood pressure", "test": "Arecoline test: CNS-penetration, in vivo (rat), reduction in the arecoline-induced increase in blood pressure", "conditions": "i.v.", "method": "Cerebroavailable antimuscarinics block this central effect. […] The trachea is incubated, the animals are respirated with an air/oxygen mixture (80 breaths per minute). The blood pressure is recorded after canulation of the carotid artery by means of a pressure recorder (Bell and Howell Type 4-327-I). The test substances are administered through the jugular vein ([…]). […] The arecoline is administered (in doses of 0.3 mg/kg) at 15 minute intervals. After 2 comparison values, the test substance is injected in increasing doses 5 minutes before the next administration of arecoline. The results obtained were compared with the average starting values and determined as the percentage inhibition."}, "[4]": {"target": "T2, M1 -receptors of the cortex (Rattus norvegicus, UniProt P08482)", "T2 construct": "The cerebral cortex, heart and salivary glands were removed, washed and homogenised; from tissue; host or cells: rat cerebral cortex homogenate (Wistar, Chbb: THOM)", "T2 sequence (P08482 1-460)": "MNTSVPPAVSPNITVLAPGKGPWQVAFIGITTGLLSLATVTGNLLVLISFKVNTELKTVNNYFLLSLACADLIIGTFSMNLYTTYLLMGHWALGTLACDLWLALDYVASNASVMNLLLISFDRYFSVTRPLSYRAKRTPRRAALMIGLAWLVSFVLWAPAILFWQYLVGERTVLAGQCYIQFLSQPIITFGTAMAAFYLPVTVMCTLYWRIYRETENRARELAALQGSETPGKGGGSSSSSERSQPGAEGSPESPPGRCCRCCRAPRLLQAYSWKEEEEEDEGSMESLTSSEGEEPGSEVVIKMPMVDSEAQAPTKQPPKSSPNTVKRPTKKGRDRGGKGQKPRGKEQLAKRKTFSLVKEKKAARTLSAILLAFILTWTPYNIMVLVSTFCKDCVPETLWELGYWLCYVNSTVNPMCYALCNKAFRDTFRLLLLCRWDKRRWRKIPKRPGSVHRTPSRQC", "test": "Receptor binding test, [3H]pirenzepine, cerebral cortex (M1)", "set-up": "species or system Male Wistar rats", "conditions": "in vitro, 1 nM [3H]pirenzepine, 90 minutes"}, "[5]": {"target": "T3, M3 (Submandibular gland) muscarinic receptors (Rattus norvegicus, UniProt P08483)", "T3 construct": "The cerebral cortex, heart and salivary glands were removed, washed and homogenised; from tissue; host or cells: rat salivary (submandibular) gland homogenate (Wistar, Chbb: THOM)", "T3 sequence (P08483 whole entry)": "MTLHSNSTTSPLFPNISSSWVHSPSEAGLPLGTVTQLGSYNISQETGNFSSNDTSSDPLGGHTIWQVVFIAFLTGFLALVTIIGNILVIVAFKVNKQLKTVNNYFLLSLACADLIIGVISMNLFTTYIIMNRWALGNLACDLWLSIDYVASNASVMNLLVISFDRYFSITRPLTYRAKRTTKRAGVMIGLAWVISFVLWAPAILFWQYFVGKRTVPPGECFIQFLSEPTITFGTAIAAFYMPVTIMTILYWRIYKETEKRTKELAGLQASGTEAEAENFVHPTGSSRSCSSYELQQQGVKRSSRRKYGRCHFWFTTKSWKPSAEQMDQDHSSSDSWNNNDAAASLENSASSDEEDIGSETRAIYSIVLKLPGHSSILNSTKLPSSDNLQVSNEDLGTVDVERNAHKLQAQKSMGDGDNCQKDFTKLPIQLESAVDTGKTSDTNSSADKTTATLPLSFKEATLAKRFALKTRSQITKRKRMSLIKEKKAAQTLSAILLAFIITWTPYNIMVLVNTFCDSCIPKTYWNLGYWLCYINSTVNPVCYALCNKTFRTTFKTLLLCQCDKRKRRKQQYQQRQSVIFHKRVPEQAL", "test": "Receptor binding test, [3H]NMS, salivary (submandibular) gland (M3)", "set-up": "species or system Male Wistar rats", "conditions": "in vitro, 0.3 nM [3H]NMS, 40 minutes"}, "[6]": {"tested_on": "learning-impaired old rats", "test": "Effect on the memory in the Morris water maze, learning-impaired 24 months old rats", "type": "in vivo, rat", "conditions": "0.2 mg/kg s.c.", "method": "The tests were carried out using the water maze described by R. G. M. Morris in Learn Motive 12:239-249 (1981) using the test method described therein.\nOn the first day, rats which were 24 months old and therefore learning-impaired (n=7 per group) were given 0.2 mg/kg of compound D by subcutaneous route whilst another group of these animals were given physiological saline solution (s.c.)."}}}
{"compound": "CCN(CCCC1CCN(CC(=O)N2c3ccc(C)cc3C(=O)Nc3cccnc32)CC1)C(=O)C(C)(C)C", "note": "[Substance E, 5,11-dihydro-8-methyl-11-[[4-[3-[(2,2-dimethyl-1-oxopropyl)-ethylamino]propyl]-1-piperidinyl]acetyl]-6H-pyrido[2,3-b][,1,4]benzodiazepin-6-one]", "values": [{"measurement": "Selectivity ratio (M1 /M2)", "setting": "[1]", "result": 10}]}
{"compound": "CN1CCN(CC(=O)N2c3ccccc3C(=O)Nc3cccnc32)CC1", "note": "[pirenzepine]", "values": [{"measurement": "learning ability and memory performance (literature)", "setting": "[2]", "result": "deterioration in learning ability and memory performance"}]}
{"compound": "CCCC(C)(C)C(=O)N(CC)CCCCC1CCN(CC(=O)N2c3ccccc3C(=O)Nc3cccnc32)CC1", "note": "[Substance C, 5,11-dihydro-11-[[4-[4-[(2,2-dimethyl-1-oxopentyl)-ethylamino]butyl]-1-piperidinyl]acetyl]-6H-pyrido[2,3-b][1,4]benzodiazepin-6-one]", "values": [{"measurement": "Selectivity ratio (M1 /M2)", "setting": "[1]", "result": 13}]}
{"compound": "CCCN(CCC)CC1CCCCN1CCNC(=O)N1c2ccccc2C(=O)Nc2cccnc21.CS(=O)(=O)O", "note": "(centres unmarked) [Substance L, 5,11-dihydro-11-[[[2-[2-[(dipropylamino)methyl]-1-piperidinyl]ethyl]amino]carbonyl]-6H-pyrido[2,3-b]-[1,4]benzodiazepin-6-one methanesulphonate]", "values": [{"measurement": "effect on arecoline-mediated central effects / increase in blood pressure (in words)", "setting": "[3]", "result": "had no effect on the increase in blood pressure caused by arecoline"}]}
{"compound": "CCN(CCCC1CCN(CC(=O)N2c3ccc(C)cc3C(=O)Nc3cccnc32)CC1)C(=O)C(C)(C)CC", "note": "[Substance G, 5,11-dihydro-8-methyl-11-[[4-[3-[(2,2-dimethyl-1-oxobutyl)ethylamino]propyl]-1-piperidinyl]acetyl]-6H-pyrido[2,3-b][1,4]benzodiazepin-6-one]", "values": [{"measurement": "Selectivity ratio (M1 /M2)", "setting": "[1]", "result": 24}]}
{"compound": "CCN(CCCC1CCN(CC(=O)N2c3ccccc3C(=O)Nc3cccnc32)CC1)C(=O)C(C)(C)C", "note": "[Substance F, 5,11-dihydro-11-[[4-[3-[(2,2-dimethyl-1-oxopropyl)-ethylamino]propyl]-1-piperidinyl]acetyl]-6H-pyrido[2,3-b][1,4]benzodiazepin-6-one]", "values": [{"measurement": "Selectivity ratio (M1 /M2)", "setting": "[1]", "result": 14}]}
{"compound": "O=C1Nc2cccnc2N(C(=O)CCC#CCN2CCCCC2)c2ccccc21", "note": "[Substance J, 5,11-dihydro-11-[1-oxo-6-(1-piperidinyl)-4-hexyn-1-yl]-6H-pyrido[2,3-b][1,4]benzodiazepin-6-one]", "values": [{"measurement": "Selectivity ratio (M1 /M2)", "setting": "[1]", "result": 6.6}]}
{"compound": "CCN(CCCC1CCN(CC(=O)N2c3ccccc3C(=O)Nc3cccnc32)CC1)C(=O)C(C)(C)CC", "note": "[Substance A, 5,11-dihydro-11-[[4-[3-[(2,2-dimethyl-1-oxobutyl]-ethylamino]-propyl]-1-piperidinyl]acetyl]-6H-pyrido[2,3-b][1,4]benzodiazepin-6-one]", "values": [{"measurement": "Selectivity ratio (M1 /M2)", "setting": "[1]", "result": 20}]}
{"compound": "CCN(CC)CC1COCCN1CCCC(=O)N1c2ccccc2C(=O)Nc2cccnc21", "note": "(centres unmarked) [Substance Q, 11-[4-[3-[(diethylamino)methyl]-4-morpholinyl]-1-oxo-1-butyl]-5,11-dihydro-6H-pyrido[2,3-b][1,4]-benzodiazepin-6-one]", "values": [{"measurement": "Selectivity ratio (M1 /M2)", "setting": "[1]", "result": 2.5}]}
{"compound": "CCCC(C)(C)C(=O)N(CC)CCCC1CCN(CC(=O)N2c3ccccc3C(=O)Nc3cccnc32)CC1", "note": "[Substance B, 5,11-dihydro-[[4-[3-[(2,2-dimethyl-1-oxopentyl)-ethylamino]-propyl]-1-piperidinyl]acetyl]-6H-pyrido[2,3-b][1,4]benzodiazepin-6-one]", "values": [{"measurement": "Selectivity ratio (M1 /M2)", "setting": "[1]", "result": 10}]}
{"compound": "CCN(CC)CC1CCCCN1CC(=O)N1c2ccccc2C(=O)Nc2cccnc21", "note": "(centres unmarked) [Substance H, 11-[[2-[(diethylamino)methyl]-1-piperidinyl]acetyl]-5,11-dihydro-6H-pyrido[2,3-b][1,4]benzodiazepin-6-one]", "values": [{"measurement": "Ki", "setting": "[1]", "result": 79, "unit": "nM"}, {"measurement": "Ki", "setting": "[4]", "result": 500, "unit": "nM"}]}
{"compound": "CN(CCC1CCCCCN1C)CC(=O)N1c2ccccc2C(=O)Nc2cccnc21", "note": "(centres unmarked) [Substance S, 5,11-dihydro-11-[[[2-(1-methyl-hexahydro-1H-2-azepinyl)-ethyl]methylamino]acetyl]-6H-pyrido[2,3-b][1,4]benzodiazepin-6-one]", "values": [{"measurement": "Selectivity ratio (M1 /M2)", "setting": "[1]", "result": 5.3}]}
{"compound": "CCN(CC)CC1CCCCN1CC(=O)N1c2cc(Cl)ccc2C(=O)Nc2cccnc21", "note": "(racemic) [Substance K, (±)-9-chloro-11-[[2-[(diethylamino)methyl]-1-piperidinyl]-acetyl]-5,11-dihydro-6H-pyrido[2,3-b]-[1,4]benzodiazepin-6-one]", "values": [{"measurement": "Ki", "setting": "[1]", "result": 25, "unit": "nM"}, {"measurement": "Ki", "setting": "[5]", "result": 759, "unit": "nM"}, {"measurement": "Ki", "setting": "[4]", "result": 126, "unit": "nM"}]}
{"compound": "CN(CCC1CCCN1C)CC(=O)N1c2ccccc2C(=O)Nc2cccnc21", "note": "(centres unmarked) [Substance R, 5,11-dihydro-11-[[[2-(1-methyl-2-pyrrolidinyl)-ethyl]-methylamino]acetyl]-6H-pyrido[2,3-b][1,4]-benzodiazepin-6-one]", "values": [{"measurement": "Selectivity ratio (M1 /M2)", "setting": "[1]", "result": 2.4}]}
{"compound": "Cc1scc2c1N(C(=O)CCC#CCN1CCCCCC1)c1ccccc1NC2=O", "note": "[Substance P, 4,9-dihydro-3-methyl-4-[6-(hexahydro-1H-1-azepinyl)-1-oxo-4-hexyn-1-yl]-10H-thieno[3,4-b][1,5]benzodi-azepin-10-one]", "values": [{"measurement": "Selectivity ratio (M1 /M2)", "setting": "[1]", "result": 4.6}]}
{"compound": "O=C1Nc2cccnc2N(C(=O)N2CCCC(CCCN3CCCCC3)C2)c2ccccc21", "note": "(centres unmarked) [Substance M, 5,11-dihydro-11-[[3-[3-(1-piperidinyl)-1-propyl]-1-piperidinyl]carbonyl]-6H-pyrido[2,3-b][1,4]benzo-diazepin-6-one]", "values": [{"measurement": "Selectivity ratio (M1 /M2)", "setting": "[1]", "result": 6.5}]}
{"compound": "CCCC(C)(C)C(=O)N(CC)CCCC1CCN(CC(=O)N2c3ccc(Cl)cc3C(=O)Nc3cccnc32)CC1", "note": "[Substance D, 5,11-dihydro-8-chloro-11-[[4-[3-[(2,2-dimethyl-1-oxopentyl)-ethylamino]propyl]-1-piperidinyl]-acetyl]-6H-pyrido[2,3-b][1,4]benzodiazepin-6-one]", "values": [{"measurement": "Selectivity ratio (M1 /M2)", "setting": "[1]", "result": 35}, {"measurement": "memory performance versus young control rats", "setting": "[6]; fourth day, 24 months old rats, n=7", "result": "reached the same level as the control groups of young rats"}, {"measurement": "memory performance compared with saline-treated learning-impaired old rats", "setting": "[6]; observed 4 days, FIG. 1", "result": "improved memory performance"}, {"measurement": "reduction of latency period in Morris water maze", "setting": "[6]; second day, 24 months old rats, n=7", "result": "approximately 50%"}]}
